Data from patent EP1963277B1, “FLUORINATED COMPOUNDS” (priority 2005, dated 2007).
Where two headings read alike, the source gives them in different places.

Assays:
Assay type in all cases: in vivo
[1] = system: Male, CD-1 mice; assay: Maximal Electroshock Assay (mouse); conditions: for duration of action: mouse MES, judged by similar potency at 1h and 4h pretreatment timepoints; for Ratio ED50 4h vs. 1h / shift in ED50 for 1 vs. 4h / ED50: mouse; for Ratio ED50 4h vs. 1h / shift in ED50 for 1 vs. 4h: oral; for ED50: oral pretreatment, range in parentheses
Experimental: Male, CD-1 mice (20-30g body weight) were orally pretreated with test compound or vehicle control, and either at 1h or 4h post dose a maximal electroshock (45mA amplitude, 0.2s duration, 60Hz) was applied by corneal electrodes. Protection was defined by the absence of a tonic extensor seizure in the animal within 20s of application of the electrical stimulus, which typically occurred in all vehicle pretreated animals. Animals received only one electroshock and so separate animals were used for the 1h and 4h timepoints. All drugs were administered in multiple doses.

[2] = system: Male, Sprague-Dawley rats; assay: Maximal Electroshock Assay (rat); conditions: for duration of action: rat MES, judged by similar potency at 0.5h and 4h pretreatment timepoints; for Ratio ED50 4h vs. 0.5h / shift in ED50 for 0.5 vs. 4h / ED50: rat; for Ratio ED50 4h vs. 0.5h / shift in ED50 for 0.5 vs. 4h: oral; for ED50: oral pretreatment, range in parentheses
Experimental: Male, Sprague-Dawley rats (approx. 100g body weight) were prescreened for tonic seizure susceptibility prior to drug testing. […] Protection was defined by the absence of a tonic extensor seizure in the animal within 20s of application of the electrical stimulus, which typically occurred in all vehicle pretreated animals. Animals received only one electroshock on the drug test day and so separate animals were used for the 0.5h and 4h timepoints. All drugs were administered in multiple doses.

[3] = system: rats; assay: Persistent Inflammatory Pain (Formalin Model); conditions: Rattus norvegicus, formalin test, 30 min pretreatment; for inhibition at 30 mg/kg: ip, i.p.; for inhibition at 60 mg/kg: po, p.o.
Experimental: The formalin test is a chemically-induced tonic pain model in which injection of formalin into a hind paw elicits a biphasic nociceptive behavior. The second phase of formalin response is predominantly due to a central sensitization phenomenon. Most clinically used drugs against neuropathic pain arc active on this second phase of formalin response. Formalin test is accepted as a valid model of persistent clinical pain.
The test was done by pretreating the rats with the test compound and 30 min later (pretreatment time), 50 µl of 2.5% formalin was injected into the right hind paw of the animal. The number of paw licking and flinching episodes were scored for 60 min post-formalin injection.
The compounds were administered either intraperitoneally (30 mg/kg) or orally (60 mg/kg).

[4] = system: SNI rats; assay: Spared Nerve Injury (SNI) model, mechanical allodynia (Dynamic Plantar Aesthesiometer); conditions: for withdrawal threshold, Post Admin 30 min / withdrawal threshold, Post Admin 180 min / withdrawal threshold, Post Admin 60 min: *** P<0.001 vs Pre-Admin.; for withdrawal threshold, Pre-Admin. 0 min: baseline before administration
Experimental: (§1) The compounds were tested for their efficacy in reducing mechanical allodynia and cold allodynia in the spared nerve injury (SNI) model of chronic neuropathic pain. In this model, the left sciatic nerve of the rat is exposed under anesthesia. Two of the branches of the sciatic nerve viz. the common peroneal and tibial nerve are ligated and sectioned. The third branch (sural nerve) is left intact. The animals were allowed a post-operative recovery period of 7 days before they were subjected to any test.
The presence of mechanical allodynia was assessed using the Dynamic Plantar Aesthesiometer (Ugo Basile, Italy) which is a modified version of the Von Frey Hair test. In this, a test filament is positioned below the animal's hind paw and the unit is activated which causes the filament to move up and touch the plantar surface of the hind paw. Increasing force is applied to the paw via the filament. […] The cut-off force is set at 50 g. The tests were done on both the non-injured (control) and the injured (SNI) paw.
Testing of compounds was done after 21 days post-operatively. After initial basal readings were taken, the test compound or the vehicle was administered (10 ml/kg) either intraperitoneally (30 mg/kg) or orally (60 mg/kg). The readings were taken again 30, 60 and 180 min after the compound/vehicle administration.

[5] = system: SNI rats; assay: Spared Nerve Injury (SNI) model, cold allodynia (acetone test); conditions: for duration (s) of nociceptive response, Post Admin 30 min: *** P<0.001 vs Pre-Admin.; for duration (s) of nociceptive response, Pre-Admin. 0 min: baseline before administration
Experimental: as §1
Cold allodynia was assessed by using the acetone test. In this model, 25 µl of acetone is sprayed on to the plantar surface of the hind paw. Evaporation of acetone causes cooling of the skin. The cold stimulus sets up nociceptive responses from the injured paw as evidenced by paw lifting, paw licking and grooming. The duration of the nociceptive responses is noted.
Testing of compounds was done after 21 days post-operatively. After initial basal readings were taken, the test compound or the vehicle was administered (10 ml/kg) either intraperitoneally (30 mg/kg) or orally (60 mg/kg). The readings were taken 30 min after the administration.

[6] = system: FCA-treated rats; assay: Freund's Complete Adjuvant (FCA) model, mechanical allodynia (modified Randall-Selitto method); conditions: p.o.; for paw withdrawal threshold (g), Post Admin 30 min / paw withdrawal threshold (g), Post Admin 60 min / paw withdrawal threshold (g), Post Admin 180 min: 60 mg/kg, ** P<0.01, *** P<0.001 vs Pre-Admin.; for paw withdrawal threshold (g), Pre-Admin. 0 min: group later given 60 mg/kg, baseline before administration
Experimental: (§2) Administration of FCA to the hind paw of an animal induces the formation of a localized edema and has been widely used as a model of chronic inflammatory pain. 100 µl of FCA is injected subcutaneously into the dorsal aspect of the left hind paw of the rats. The edema appears within 2 h reaches a peak by 6h and lasts for about 7 days. The effects of compounds on mechanical allodynia and paw volume were studied 2 days after FCA administration.
The effect of the compounds in alleviating mechanical allodynia was assessed in the FCA-treated rats using the modified Randall-Selitto method (Analgesy-Meter, Ugo Basile, Italy). The animal's paw is placed on a small plinth under a cone-shaped pusher. Increasing force is applied to the paw by depressing a pedal until vocalization or withdrawal of the paw occurs. The minimum force required to elicit this vocalization/withdrawal is the paw pressure threshold. The cut-off was set at 150 g.
After the initial basal (control) readings were taken, the test compound (60 mg/kg)/vehicle was administered orally in a volume of 10 ml/kg. The paw pressure thresholds were measured 30, 60 and 180 min post administration. […] Some of the compounds were effective even at 60 and 180 min post administration.

[7] = system: FCA-treated rats; assay: Freund's Complete Adjuvant (FCA) model, paw edema/volume (plethysmometer); conditions: p.o.; for paw volume (ml), Post Admin 30 min / paw volume (ml), Post Admin 60 min: 60 mg/kg; for paw volume (ml), Pre-Admin. 0 min: group later given 60 mg/kg, baseline before administration
Experimental: as §2
The edema/volume of the paw is a measure of inflammation induced by FCA. This was measured by using a plethysmometer (Ugo Basile, Italy). In this, the paw of the rat is immersed in a reservoir of water and the volume of water displaced indicates the paw volume.
After the initial basal (control) readings were taken, the test compound (60 mg/kg)/vehicle was administered orally in a volume of 10 ml/kg.

[8] = electroshock 1h post dose, blockade of tonic extensor seizure, read-out: MES oral ED50 1h
[9] = read-out: MES oral ED50 4h, electroshock 4h post dose
[10] = read-out: MES oral ED50 0.5h, electroshock 0.5h post dose
[11] = *** P<0.001, read-out: %Inhibition Phase I
[12] = *** P<0.001, read-out: %Inhibition Phase II
[13] = ** P<0.01, *** P<0.001, read-out: %Inhibition Phase II
[14] = group later given 30 mg/kg, i.p.
[15] = group later given 60 mg/kg, p.o.

SMILES	duration of action [1]	Ratio ED50 4h vs. 1h [1]	shift in ED50 for 1 vs. 4h [1]	ED50 [1, 8]	ED50 [1, 9]	duration of action [2]	Ratio ED50 4h vs. 0.5h [2]	shift in ED50 for 0.5 vs. 4h [2]	ED50 [2, 10]	ED50 [2, 9]	inhibition at 30 mg/kg [3, 11]	inhibition at 30 mg/kg [3, 12]	inhibition at 60 mg/kg [3, 13]	inhibition at 60 mg/kg ([3]; read-out: %Inhibition Phase I)	withdrawal threshold, Post Admin 30 min ([4]; 30 mg/kg, i.p.)	withdrawal threshold, Post Admin 180 min ([4]; 30 mg/kg, i.p.)	withdrawal threshold, Post Admin 30 min ([4]; 60 mg/kg, p.o.)	withdrawal threshold, Post Admin 60 min ([4]; 60 mg/kg, p.o.)	withdrawal threshold, Post Admin 180 min ([4]; 60 mg/kg, p.o.)	withdrawal threshold, Pre-Admin. 0 min [4, 14]	other results
CC(=O)NC(COC(F)F)C(=O)NCc1ccccc1 (centres unmarked) [Compound 3, 2-(Acetylamino)-N-benzyl-3-(difluoromethoxy)propanamide]	longer than Lacosamide	3.5	1 to 3.5 fold	5.7 mg/kg	20 mg/kg	longer than Lacosamide	1.4	1 to 1.4 fold	3 mg/kg	4.2 mg/kg	87.9 ± 12.1%	90.2 ± 6.5%	46.1 ± 8.7%	21.4 ± 10.2%	22.5 ± 2.1*** g	14.1 ± 1.6*** g	19.4 ± 2.3*** g	20.6 ± 3.1*** g	10.8 ± 1.8 g	7.5 ± 1.4 g	withdrawal threshold, Pre-Admin. 0 min [4, 15]: 9.7 ± 2.5 g; duration (s) of nociceptive response, Post Admin 30 min ([5]; 30 mg/kg, i.p.): 4.3 ± 1.6*** s; duration (s) of nociceptive response, Post Admin 30 min ([5]; 60 mg/kg, p.o.): 17.2 ± 6.2*** s; duration (s) of nociceptive response, Pre-Admin. 0 min [5, 14]: 45.8 ± 9.4 s; duration (s) of nociceptive response, Pre-Admin. 0 min [5, 15]: 70.7 ± 18.9 s; paw withdrawal threshold (g), Post Admin 30 min [6]: 57.8 ± 4.9** g; paw withdrawal threshold (g), Post Admin 60 min [6]: 46.7 ± 3.8 g; paw withdrawal threshold (g), Post Admin 180 min [6]: 37.8 ± 5.4 g; paw withdrawal threshold (g), Pre-Admin. 0 min [6]: 32.8 ± 6.5 g; paw volume (ml), Post Admin 30 min [7]: 2.3 ± 0.1 mL; paw volume (ml), Post Admin 60 min [7]: 2.3 ± .01 mL; paw volume (ml), Pre-Admin. 0 min [7]: 2.3 ± 0.0 mL
CC(=O)NC(COC(F)F)C(=O)NCc1ccc(F)cc1 (centres unmarked) [Compound 4, 2-(Acetylamino)-3-(difluoromethoxy)-N-(4-fluoro-benzyl)propanamide]	longer than Lacosamide	1.0	1 to 3.5 fold	9.8 mg/kg	9.8 mg/kg	longer than Lacosamide	1.0	1 to 1.4 fold	3.3 mg/kg	3.4 mg/kg	94.7 ± 5.3%	81.6 ± 10%	41.9 ± 9%	7.6 ± 6.7%	16.7 ± 1.4*** g	13.2 ± 1.0*** g	15.4 ± 1.1*** g	16.2 ± 1.7*** g	7.9 ± 0.6 g	6.7 ± 0.7 g	withdrawal threshold, Post Admin 60 min ([4]; 30 mg/kg, i.p.): 15.0 ± 0.8*** g; withdrawal threshold, Pre-Admin. 0 min [4, 15]: 7.5 ± 0.5 g; duration (s) of nociceptive response, Post Admin 30 min ([5]; 30 mg/kg, i.p.): 3.1 ± 2.1*** s; duration (s) of nociceptive response, Post Admin 30 min ([5]; 60 mg/kg, p.o.): 21.9 ± 6.4*** s; duration (s) of nociceptive response, Pre-Admin. 0 min [5, 14]: 48.2 ± 10.1 s; duration (s) of nociceptive response, Pre-Admin. 0 min [5, 15]: 56.2 ± 8.4 s; paw withdrawal threshold (g), Post Admin 30 min [6]: 58.3 ± 4.8** g; paw withdrawal threshold (g), Post Admin 60 min [6]: 49.4 ± 6.4** g; paw withdrawal threshold (g), Post Admin 180 min [6]: 51.1 ± 8.9** g; paw withdrawal threshold (g), Pre-Admin. 0 min [6]: 33.9 ± 4.2 g; paw volume (ml), Post Admin 30 min [7]: 2.08 ± 0.0 mL; paw volume (ml), Post Admin 60 min [7]: 2.11 ± 0.0 mL; paw volume (ml), Pre-Admin. 0 min [7]: 2.01 ± 0.0 mL
COC[C@@H](NC(C)=O)C(=O)NCc1ccccc1 [Lacosamide, R-2-acetamido-N-benzyl-3-methoxy-propanamide, reference compound]					32 mg/kg				1.8 mg/kg	8.3 mg/kg											
